Assay results reported in ChEMBL document CHEMBL1146961, “Analogues of N-hydroxycinnamoylphenalkylamides as inhibitors of human melanocyte-tyrosinase” (Bioorg Med Chem Lett, 2006).

Tests used:
[1] = system: Radical scavenging activity; experiment: DPPH radical scavenging activity at 100 uM; assay type: functional
[2] = system: Rattus norvegicus; experiment: Toxicity in rat at 2 g/kg, po; assay type: organism-based; conditions: in vivo, 2000 mg/kg

## O=C(/C=C/c1ccc(O)c(O)c1)NCCc1ccc(O)c(O)c1
[1]
  Activity: 60%

## O=C(/C=C/c1ccc(O)c(O)c1)NCCc1ccc(O)cc1
[1]
  Activity: 40%
[2]
  Activity: Not Active

## O=C(CCc1ccc(O)c(O)c1)NCCc1ccc(O)cc1
[2]
  Activity: Not Active

## O=C(CCc1ccc(O)cc1)NCCc1ccc(O)cc1
[2]
  Activity: Not Active

## COc1cc(CNC(=O)/C=C/c2ccc(O)c(O)c2)ccc1O
[1]
  Activity: 60%

## COc1cc(/C=C/C(=O)NCCc2ccc(O)c(O)c2)ccc1O
[1]
  Activity: 60%
